In article PMC6522510 (Nature Communications, 2019):

How the values were obtained:
Design in all cases: species or system AML cell lines (8); Primary HTS, single concentration about 10 uM, Cell Titer Glo viability; log10 luminescence, per cent inhibition relative to cycloheximide control
Details in all cases: 72 h, relative to cycloheximide control, log10 luminescence; inhibitor
CHRF288-11 = test system: CHRF288-11
CMK = test system: CMK
CMS = test system: CMS
M07e = test system: M07e
ML-2 = test system: ML-2
MOLM-13 = test system: MOLM-13
MV4-11 = test system: MV4-11
U937 = test system: U937

| Compound | CHRF288-11 %inh (CHRF288-11) [%] | CMK %inh (CMK) [%] | CMS %inh (CMS) [%] | M07e %inh (M07e) [%] | ML-2 %inh (ML-2) [%] | MOLM-13 %inh (MOLM-13) [%] | MV4-11 %inh (MV4-11) [%] | U937 %inh (U937) [%] |
| --- | --- | --- | --- | --- | --- | --- | --- | --- |
| COc1ccc2ncn(-c3cc(O[C@H](C)c4ccccc4C(F)(F)F)c(C(N)=O)s3)c2c1 [SJ000573322-1, U20814/199/10] | 71.55 | 113.1 | 76.93 | 100.1 | 37.32 | 82.54 | 71.74 | 82.26 |
| COc1ccc(-c2coc3ncnc(N)c23)cc1 [SJ000573323-1, R6872/61/3] | 1.277 | 0.752 | -2.18 | -2.594 | -3.247 | 0.9708 | -1.377 | 2.094 |
| NS(=O)(=O)c1ccc(Nc2cc(-c3cccc(O)c3)n[nH]2)cc1 [SJ000573324-1, T350/111/20] | -4.339 | -2.15 | 0.8193 | -0.9399 | 1.059 | 21.76 | 18.96 | -2.304 |
| Cc1ccc(-c2cc3c(NC(=O)C4CC4)ncnc3o2)cc1 [SJ000573325-1, T337/155/21] | 1.899 | -5.745 | 1.223 | 5.01 | 1.949 | -1.693 | -4.319 | -2.342 |
| NS(=O)(=O)c1cccc(Nc2cc(-c3ccc(F)cc3)n[nH]2)c1 [SJ000573326-1, T350/64/20] | -0.9199 | -1.826 | 1.139 | 6.143 | 1.419 | 68.76 | 42.33 | -2.237 |
| CCn1c(-c2nonc2N)nc2c(C#CC(C)(C)O)nc(O[C@@H](CN)c3ccccc3)cc21 [SJ000573327-1, MS208738-058A1] | 92 | 85.94 | 81.02 | 123.2 | 56.05 | 95.38 | 81.31 | 77.05 |
| CCCN1CCC(c2ccc(Nc3nc(Nc4cc(F)ccc4C(N)=O)c4cc[nH]c4n3)c(OC)c2)CC1 [SJ000573328-1, U23536/58/1] | 106.3 | 51.59 | 49 | 37.4 | 55.61 | 66.64 | 58.24 | 63.82 |
| O=C(O[C@H]1CN[C@H](C#Cc2cc3ncnc(Nc4ccc(OCc5cccc(F)c5)c(Cl)c4)c3s2)C1)N1CCOCC1 [SJ000573329-1, U20348/87/4] | 79.21 | 8.904 | 8.758 | -3.855 | 22.51 | 4.591 | 10.03 | 6.089 |
| N#Cc1cccc(Nc2nccc(-c3cnn4ncccc34)n2)c1 [SJ000573330-1, U19339/96/3] | 55.56 | 106.6 | 104.6 | 113.8 | 56.71 | 98.39 | 85.56 | 80.06 |
| Nc1ncnc2occ(-c3ccc(NC(=O)Nc4cc(C(F)(F)F)cc(C(F)(F)F)c4)cc3)c12 [SJ000573331-1, T299/133/15] | 6.057 | 3.982 | 4.245 | 1.156 | 1.52 | 93.65 | 73.61 | 4.807 |
| CC(=O)Nc1cccc(C#Cc2cncnc2Nc2ccc(OCc3cccc(F)c3)c(Cl)c2)c1 [SJ000573332-1, U21935/99/1] | 3.642 | -0.8317 | 0.8612 | 1.101 | 1.213 | 0.3704 | 0.9824 | 4.462 |
| CCn1c(-c2nonc2N)nc2c(C#CC(C)(C)O)ncc(OC[C@@H]3CCCN3)c21 [SJ000573333-1, ML205742-149B0] | 13.49 | 15.2 | 14 | 9.925 | 7.469 | 74.82 | 16.86 | 42.79 |
| O=C(O[C@H]1CN[C@H](C#Cc2cc3ncnc(Nc4ccc(Cc5ccccc5)cc4)c3s2)C1)N1CCOCC1 [SJ000573334-1, U20046/184/1] | 4.257 | 86.74 | 1.486 | 4.781 | 11.25 | 61.51 | 4.189 | 2.636 |
| C[C@@H](Oc1cc(-n2cnc3ccc(OC[C@@H](O)CO)cc32)sc1C(N)=O)c1ccccc1Cl [SJ000573335-1, U22436/41/1] | 63.27 | 83.74 | 71.91 | 110.3 | 25.64 | 82.19 | 65.42 | 86.31 |
| Cc1ccc(NC(=O)c2ccnc(N3CCCC3)c2)cc1-c1ccc(C(=O)NCC2CC2)cc1 [SJ000573336-1, U23923/65/8] | -0.1983 | 0.1294 | -0.7437 | -0.5333 | -2.392 | 2.702 | 1.019 | 0.7829 |
| CCCN1CCCC(c2ccc(Nc3nc(Nc4cc(F)ccc4C(N)=O)c4cc[nH]c4n3)c(OC)c2)C1 (stereo not shown) [SJ000573337-1, U23441/128/1] | 108.4 | 49.26 | 31.15 | 41.75 | 69.05 | 102.6 | 85.37 | 43.81 |
| CCn1c(-c2nonc2N)nc2c(C#CC(C)(C)O)ncc(OCC3CCNCC3)c21 [SJ000573338-1, N3180-49-A1] | -0.2898 | 1.889 | 4.398 | -1.564 | 1.732 | 4.413 | 8.685 | 25.28 |
| CCn1c(-c2nonc2N)nc2c(C#CCN)ncc(OCCCN)c21 [SJ000573339-1, N3180-25-A1] | 1.457 | 3.187 | 4.589 | -1.392 | 0.8489 | 6.465 | 3.433 | 1.188 |
| CCn1c(-c2nonc2N)nc2c(C#CC(C)(C)O)ncc(OC3CCNCC3)c21 [SJ000573340-1, N2972-34-A1] | 8.441 | 1.4 | 5.982 | 6.128 | 4.911 | 25.8 | 14.73 | 50.59 |
| CCN(CC)Cc1ccc(Nc2nccc(-c3cnn4ncccc34)n2)cc1 [SJ000573341-1, U20497/10/4] | 61.01 | 90.23 | 102.8 | 122.1 | 56.99 | 89.9 | 77.95 | 77.76 |
| CCn1c(-c2nonc2N)nc2ccc(F)cc21 [SJ000573344-1, U17602/50/1] | 4.16 | -0.9351 | -1.218 | 1.126 | -0.6145 | 3.561 | -0.453 | -1.756 |
| O=C(NCC1CC1)c1ccc(-c2cccc(C(=O)NC3CC3)c2)cc1 [SJ000573345-1, R5419/155/1] | -1.419 | 6.153 | 0.2631 | 0.9268 | 0.3479 | 4.094 | 3.005 | 0.894 |
| Cc1ccc(C(=O)NC2CCCCC2)cc1-c1ccc(C(=O)NCC2CC2)cc1 [SJ000573346-1, R5311/184/6] | 2.896 | 5.045 | -0.3831 | -0.328 | -1.695 | 6.287 | 6.399 | 4.929 |
